According to patent US9505734B2, “Phenyl C-glucoside derivative containing deoxyglucose structure, preparation method and use thereof” (Tianjin Institute of Pharmaceutical Research, priority 2012, dated 2016):
“Also recorded” adds a separate entry of the source.

What was measured:
hSGLT2 = hSGLT2 (Homo sapiens (Human), UniProt P31639); assay: IC50 of inhibition on SGLT2; type: cell-based; settings: in words
[1] = influencing factors test: light stability; type: physicochemical; settings: listed as I-D1-6 raw materials
Source text: (§1) The appearance, number of impurity and the amount of impurity (measured by HPLC) are compared with that of day 0.

[2] = system: SD rats (type 2 diabetes model); assay: model for rat urine glucose excretion (glucose-oxidase method); type: in vivo; settings: comparison in words, rat urine glucose excretion model, 6 mg/kg
hSGLT1 = hSGLT1 (Homo sapiens (Human), UniProt P13866); assay: IC50 of inhibition on SGLT1; type: cell-based; settings: in words
[3] = influencing factors test: higher temperature stability; type: physicochemical; settings: higher temperature (45° C.), listed as I-D1-6 raw materials
Source text: as §1

[4] = influencing factors test: higher humidity stability; type: physicochemical
Source text: as §1

[5] = higher humidity, day 0, HPLC, listed as I-D1-6 raw materials
[6] = higher humidity, day 7, HPLC, listed as I-D1-6 raw materials
[7] = higher humidity, day 14, HPLC, listed as I-D1-6 raw materials

Sequence of hSGLT2 (P31639 whole entry): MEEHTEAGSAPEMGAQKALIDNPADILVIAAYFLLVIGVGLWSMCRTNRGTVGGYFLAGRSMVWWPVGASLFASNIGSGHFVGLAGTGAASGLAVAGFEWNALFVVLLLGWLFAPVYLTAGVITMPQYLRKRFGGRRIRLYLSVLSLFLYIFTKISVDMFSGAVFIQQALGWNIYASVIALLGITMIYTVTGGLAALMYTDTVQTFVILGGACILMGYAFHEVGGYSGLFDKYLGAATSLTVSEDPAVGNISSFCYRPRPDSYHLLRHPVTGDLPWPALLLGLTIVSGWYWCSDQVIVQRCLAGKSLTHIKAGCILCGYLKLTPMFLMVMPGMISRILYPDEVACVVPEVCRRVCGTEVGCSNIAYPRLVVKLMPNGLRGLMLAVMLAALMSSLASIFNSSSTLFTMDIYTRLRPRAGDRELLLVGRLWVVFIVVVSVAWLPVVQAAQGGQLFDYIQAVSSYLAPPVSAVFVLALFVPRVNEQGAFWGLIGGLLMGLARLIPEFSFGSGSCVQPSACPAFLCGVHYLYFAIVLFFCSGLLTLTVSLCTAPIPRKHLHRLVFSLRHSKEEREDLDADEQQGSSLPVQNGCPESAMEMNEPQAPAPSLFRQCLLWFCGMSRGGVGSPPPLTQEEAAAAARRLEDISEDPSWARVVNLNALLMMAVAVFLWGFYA
Sequence of hSGLT1 (P13866 whole entry): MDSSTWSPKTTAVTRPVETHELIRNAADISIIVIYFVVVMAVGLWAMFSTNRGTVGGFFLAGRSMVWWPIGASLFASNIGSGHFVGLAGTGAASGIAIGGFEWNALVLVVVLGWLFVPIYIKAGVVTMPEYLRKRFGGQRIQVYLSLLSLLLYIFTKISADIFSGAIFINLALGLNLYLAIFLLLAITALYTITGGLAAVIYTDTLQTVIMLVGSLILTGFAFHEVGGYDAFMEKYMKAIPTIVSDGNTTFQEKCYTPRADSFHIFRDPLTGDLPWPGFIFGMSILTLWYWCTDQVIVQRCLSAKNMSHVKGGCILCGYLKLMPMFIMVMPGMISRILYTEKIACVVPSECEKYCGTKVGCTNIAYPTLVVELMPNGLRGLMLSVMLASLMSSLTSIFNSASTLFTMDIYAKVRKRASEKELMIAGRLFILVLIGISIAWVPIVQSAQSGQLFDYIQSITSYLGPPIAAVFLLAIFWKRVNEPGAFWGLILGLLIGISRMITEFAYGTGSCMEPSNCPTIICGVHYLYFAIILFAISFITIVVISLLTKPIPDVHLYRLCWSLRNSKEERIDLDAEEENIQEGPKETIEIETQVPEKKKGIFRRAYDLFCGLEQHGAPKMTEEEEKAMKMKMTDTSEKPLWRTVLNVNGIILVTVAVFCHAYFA

CCOc1ccc(Cc2cc(C3OC(C)C(O)C(O)C3O)ccc2Cl)cc1 [I-D1-6, (1S)-1-[4-chloro-3-(4-ethoxybenzyl)phenyl]-1,6-dideoxy-D-glucose]
inhibition to SGLT2 (in words) (hSGLT2): inhibitory effect on SGLT2 enzyme; also recorded: much stronger inhibition to SGLT2
selectivity on SGLT1/SGLT2 (in words) (hSGLT2): much better selectivity on SGLT1/SGLT2
Appearance ([1]; light (natural daylight, about 80000 Lx), day 0): a white,
Number of impurity ([1]; light, day 0, HPLC): 7
Total amount of impurity (%) ([1]; light, day 0, HPLC): 0.89%
Number of impurity ([1]; light, day 7, HPLC): 7
Total amount of impurity (%) ([1]; light, day 7, HPLC): 0.93%
Appearance ([1]; light, day 7): a white,
Number of impurity ([1]; light, day 14, HPLC): 7
Total amount of impurity (%) ([1]; light, day 14, HPLC): 0.96%
Appearance ([1]; light, day 14): a white,
urine glucose excretion effect (in words) [2]: stronger urine glucose excretion effect
inhibition to SGLT1 (in words) (hSGLT1): much less inhibition to SGLT1
Number of impurity ([3]; day 0, HPLC): 7
Total amount of impurity (%) ([3]; day 0, HPLC): 0.89%
Appearance ([3]; day 0): white,
Number of impurity ([3]; day 7, HPLC): 8
Total amount of impurity (%) ([3]; day 7, HPLC): 0.97%
Appearance ([3]; day 7): white,
Number of impurity ([3]; day 14, HPLC): 9
Total amount of impurity (%) ([3]; day 14, HPLC): 1.13%
Appearance ([3]; day 14): white,
Appearance ([4]; higher humidity (30% relative humidity at 30° C.), day 0, listed as I-D1-6 raw materials): white,
Number of impurity [4, 5]: 7
Total amount of impurity (%) [4, 5]: 0.89%
Appearance ([4]; higher humidity, day 7): white
Number of impurity [4, 6]: 7
Total amount of impurity (%) [4, 6]: 0.93%
Appearance ([4]; higher humidity, day 14): white
Number of impurity [4, 7]: 8
Total amount of impurity (%) [4, 7]: 1.08%
